Source: patent publication US20230024096A1, “BIFUNCTIONAL COMPOUNDS FOR THE TREATMENT OF CANCER” (Hoffmann-La Roche Inc., priority 2019, published 2023)

Target: T1, SMARCA2 (Homo sapiens, UniProt P51531)
T1 construct: endogenous in cells; host or cells: HT1080 (CRISPR HiBiT knock-in clone, generated in house)
Experiment: SMARCA2 HiBiT degradation assay (cellular)
Type: cell-based
Details: table head names A549; for DC50: 6 h incubation, HiBiT-tagged SMARCA2, luminescence read-out, read-out: HiBit A549 SMARCA2 IP (nM) 6 h; for Emax: A549, 6 h incubation, Emax = amount of residual protein remaining in the cell following compound treatment

T1 sequence (P51531 whole entry): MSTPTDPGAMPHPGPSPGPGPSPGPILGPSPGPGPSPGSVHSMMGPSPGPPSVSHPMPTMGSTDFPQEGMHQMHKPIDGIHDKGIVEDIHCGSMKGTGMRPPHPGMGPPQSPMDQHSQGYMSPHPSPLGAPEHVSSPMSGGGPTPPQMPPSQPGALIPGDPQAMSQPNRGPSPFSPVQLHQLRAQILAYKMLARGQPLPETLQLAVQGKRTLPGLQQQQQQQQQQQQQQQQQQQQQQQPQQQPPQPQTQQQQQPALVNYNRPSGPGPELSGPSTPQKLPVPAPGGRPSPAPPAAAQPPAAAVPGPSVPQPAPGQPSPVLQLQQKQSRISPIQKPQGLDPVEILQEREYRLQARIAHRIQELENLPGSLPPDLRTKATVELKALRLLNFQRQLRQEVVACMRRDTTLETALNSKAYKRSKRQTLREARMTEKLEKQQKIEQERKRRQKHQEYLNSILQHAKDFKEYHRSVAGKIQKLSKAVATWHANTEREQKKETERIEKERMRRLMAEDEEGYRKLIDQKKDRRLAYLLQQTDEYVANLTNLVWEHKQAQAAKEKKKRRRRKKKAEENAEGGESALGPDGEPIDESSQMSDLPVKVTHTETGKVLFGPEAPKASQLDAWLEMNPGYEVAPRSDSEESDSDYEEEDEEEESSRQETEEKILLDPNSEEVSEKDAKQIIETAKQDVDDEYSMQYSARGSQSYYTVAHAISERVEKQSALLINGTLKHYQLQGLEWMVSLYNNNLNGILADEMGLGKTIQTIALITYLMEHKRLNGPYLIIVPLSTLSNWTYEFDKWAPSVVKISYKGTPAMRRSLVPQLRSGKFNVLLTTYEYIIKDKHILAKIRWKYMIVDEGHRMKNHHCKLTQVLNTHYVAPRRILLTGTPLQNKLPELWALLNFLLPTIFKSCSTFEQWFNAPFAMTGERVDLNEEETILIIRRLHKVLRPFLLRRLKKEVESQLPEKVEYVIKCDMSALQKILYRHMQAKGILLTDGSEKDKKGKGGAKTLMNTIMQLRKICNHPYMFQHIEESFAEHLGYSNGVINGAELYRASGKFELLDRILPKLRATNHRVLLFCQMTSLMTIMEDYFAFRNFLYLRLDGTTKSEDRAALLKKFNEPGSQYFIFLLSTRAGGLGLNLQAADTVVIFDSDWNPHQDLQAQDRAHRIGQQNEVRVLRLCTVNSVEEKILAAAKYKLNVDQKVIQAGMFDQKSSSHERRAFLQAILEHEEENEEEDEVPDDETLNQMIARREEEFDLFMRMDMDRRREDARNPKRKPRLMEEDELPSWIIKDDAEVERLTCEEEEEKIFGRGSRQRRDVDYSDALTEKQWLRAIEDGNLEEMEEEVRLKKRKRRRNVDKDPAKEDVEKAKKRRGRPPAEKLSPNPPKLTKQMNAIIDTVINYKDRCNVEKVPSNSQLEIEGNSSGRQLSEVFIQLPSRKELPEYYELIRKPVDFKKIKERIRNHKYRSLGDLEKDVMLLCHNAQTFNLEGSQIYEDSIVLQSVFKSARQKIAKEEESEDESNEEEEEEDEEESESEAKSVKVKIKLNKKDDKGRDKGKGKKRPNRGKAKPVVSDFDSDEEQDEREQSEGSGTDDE

SMILES | DC50 [nM] | Emax [%]
Nc1nnc(-c2ccccc2O)cc1N1CC2CCC(C1)N2c1cccc(CN2CCC(C(=O)N3CCN(c4ccc5c(c4)C(=O)N(C4CCC(=O)NC4=O)C5=O)CC3)CC2)c1 (racemic) [Example 95, rac-5-[4-[1-[[3-[3-[3-amino-6-(2-hydroxyphenyl)pyridazin-4-yl]-3,8-diazabicyclo[3.2.1]octan-8-yl]phenyl]methyl]piperidine-4-carbonyl]piperazin-1-yl]-2-(2,6-dioxo-3-piperidyl)isoindoline-1,3-dione] | 13 | 25
Nc1nnc(-c2ccccc2O)cc1N1CC2CCC(C1)N2c1cccc(CN2CCC(C(=O)N3CCC(Oc4ccc5c(c4)C(=O)N(C4CCC(=O)NC4=O)C5=O)CC3)CC2)c1 (racemic) [Example 96, rac-5-[[1-[1-[[3-[3-[3-amino-6-(2-hydroxyphenyl)pyridazin-4-yl]-3,8-diazabicyclo[3.2.1]octan-8-yl]phenyl]methyl]piperidine-4-carbonyl]-4-piperidyl]oxy]-2-(2,6-dioxo-3-piperidyl)isoindoline-1,3-dione] | 7 | 27
Nc1nnc(-c2ccccc2O)cc1OCC(CNC(=O)C1CCN(c2ccc3c(c2)C(=O)N(C2CCC(=O)NC2=O)C3=O)CC1)c1ccccc1 (racemic) [Example 97, N-[3-[3-amino-6-(2-hydroxyphenyl)pyridazin-4-yl]oxy-2-phenyl-propyl]-1-[2-(2,6-dioxo-3-piperidyl)-1,3-dioxo-isoindolin-5-yl]piperidine-4-carboxamide (racemic mixture of diastereomers)] | 659 | 30
Nc1nnc(-c2ccccc2O)cc1OCC(CNC(=O)CN1CCC(c2ccc(OC3CCC(=O)NC3=O)cc2)CC1)c1ccccc1 (racemic) [Example 98, N-[3-[3-amino-6-(2-hydroxyphenyl)pyridazin-4-yl]oxy-2-phenyl-propyl]-2-[4-[4-[(2,6-dioxo-3-piperidyl)oxy]phenyl]-1-piperidyl]acetamide;2,2,2-trifluoroacetic acid (racemic mixture of diastereomers)] | 182 | 63
Nc1nnc(-c2ccccc2O)cc1N1CC2CCC(C1)N2c1cccc(OCCN2CCN(C(=O)COc3ccc4c(c3)C(=O)N(C3CCC(=O)NC3=O)C4=O)CC2)c1 (racemic) [Example 99, rac-5-[2-[4-[2-[3-[3-[3-amino-6-(2-hydroxyphenyl)pyridazin-4-yl]-3,8-diazabicyclo[3.2.1]octan-8-yl]phenoxy]ethyl]piperazin-1-yl]-2-oxo-ethoxy]-2-(2,6-dioxo-3-piperidyl)isoindoline-1,3-dione] | 31 | 51
Nc1nnc(-c2ccccc2O)cc1N1CC2CCC(C1)N2c1cccc(CN2CCC(C(=O)NC3CCN(c4ccc5c(c4)C(=O)N(C4CCC(=O)NC4=O)C5=O)CC3)CC2)c1 (racemic) [Example 106, rac-1-[[3-[3-[3-amino-6-(2-hydroxyphenyl)pyridazin-4-yl]-3,8-diazabicyclo[3.2.1]octan-8-yl]phenyl]methyl]-N-[1-[2-(2,6-dioxo-3-piperidyl)-1,3-dioxo-isoindolin-5-yl]-4-piperidyl]piperidine-4-carboxamide] | 23 | 26
Nc1nnc(-c2ccccc2O)cc1N1CC2CCC(C1)N2c1ccc(C(F)(F)F)c(C(=O)N2CCN(C(=O)C3CCN(c4ccc5c(c4)C(=O)N(C4CCC(=O)NC4=O)C5=O)CC3)CC2)c1 (racemic) [Example 107, rac-5-[4-[4-[5-[3-[3-amino-6-(2-hydroxyphenyl)pyridazin-4-yl]-3,8-diazabicyclo[3.2.1]octan-8-yl]-2-(trifluoromethyl)benzoyl]piperazine-1-carbonyl]-1-piperidyl]-2-(2,6-dioxo-3-piperidyl)isoindoline-1,3-dione] | 193 | 51
Nc1nnc(-c2ccccc2O)cc1N1CC(Oc2cccc(N3CCN(C(=O)CN4CCC(c5ccc(NC6CCC(=O)NC6=O)cc5)CC4)CC3)c2)C1 (racemic) [Example 112, rac-3-[4-[1-[2-[4-[3-[1-[3-amino-6-(2-hydroxyphenyl)pyridazin-4-yl]azetidin-3-yl]oxyphenyl]piperazin-1-yl]-2-oxo-ethyl]-4-piperidyl]anilino]piperidine-2,6-dione] | 101 | 51
Nc1nnc(-c2ccccc2O)cc1N1CC2CCC(C1)N2c1cccc(OC2CCN(C(=O)C3CCN(c4ccc5c(c4)C(=O)N(C4CCC(=O)NC4=O)C5=O)CC3)CC2)c1 (racemic) [Example 113, rac-5-[4-[4-[3-[3-[3-amino-6-(2-hydroxyphenyl)pyridazin-4-yl]-3,8-diazabicyclo[3.2.1]octan-8-yl]phenoxy]piperidine-1-carbonyl]-1-piperidyl]-2-(2,6-dioxo-3-piperidyl)isoindoline-1,3-dione] | 19 | 35
Nc1nnc(-c2ccccc2O)cc1N1CC2CCC(C1)N2c1cccc(OC2CCN(C(=O)CN3CCC(c4ccc(NC5CCC(=O)NC5=O)cc4)CC3)CC2)c1 (racemic) [Example 114, rac-3-[4-[1-[2-[4-[3-[3-[3-amino-6-(2-hydroxyphenyl)pyridazin-4-yl]-3,8-diazabicyclo[3.2.1]octan-8-yl]phenoxy]-1-piperidyl]-2-oxo-ethyl]-4-piperidyl]anilino]piperidine-2,6-dione] | 82 | 40
Cc1c(C(=O)N2CCN(C(=O)C3CCN(c4ccc5c(c4)C(=O)N(C4CCC(=O)NC4=O)C5=O)CC3)CC2)cccc1N1C2CCC1CN(c1cc(-c3ccccc3O)nnc1N)C2 (racemic) [Example 116, rac-5-[4-[4-[3-[3-[3-amino-6-(2-hydroxyphenyl)pyridazin-4-yl]-3,8-diazabicyclo[3.2.1]octan-8-yl]-2-methyl-benzoyl]piperazine-1-carbonyl]-1-piperidyl]-2-(2,6-dioxo-3-piperidyl)isoindoline-1,3-dione] | 58 | 32
Cc1c(C(=O)N2CCN(C(=O)CCC3CCN(c4ccc5c(c4)C(=O)N(C4CCC(=O)NC4=O)C5=O)CC3)CC2)cccc1N1C2CCC1CN(c1cc(-c3ccccc3O)nnc1N)C2 (racemic) [Example 117, rac-5-[4-[3-[4-[3-[3-[3-amino-6-(2-hydroxyphenyl)pyridazin-4-yl]-3,8-diazabicyclo[3.2.1]octan-8-yl]-2-methyl-benzoyl]piperazin-1-yl]-3-oxo-propyl]-1-piperidyl]-2-(2,6-dioxo-3-piperidyl)isoindoline-1,3-dione] | 144 | 50
CN(C(=O)C1CCN(Cc2cccc(N3C4CCC3CN(c3cc(-c5ccccc5O)nnc3N)C4)c2)CC1)C1CCN(c2ccc3c(c2)C(=O)N(C2CCC(=O)NC2=O)C3=O)CC1 (racemic) [Example 118, rac-1-[[3-[3-[3-amino-6-(2-hydroxyphenyl)pyridazin-4-yl]-3,8-diazabicyclo[3.2.1]octan-8-yl]phenyl]methyl]-N-[1-[2-(2,6-dioxo-3-piperidyl)-1,3-dioxo-isoindolin-5-yl]-4-piperidyl]-N-methyl-piperidine-4-carboxamide] | 11 | 26
Nc1nnc(-c2ccccc2O)cc1N1CC(Oc2ccc(C(=O)N3CCN(C(=O)C4CCN(c5ccc6c(c5)C(=O)N(C5CCC(=O)NC5=O)C6=O)CC4)CC3)c(Cl)c2)C1 (racemic) [Example 125, rac-5-[4-[4-[4-[1-[3-amino-6-(2-hydroxyphenyl)pyridazin-4-yl]azetidin-3-yl]oxy-2-chloro-benzoyl]piperazine-1-carbonyl]-1-piperidyl]-2-(2,6-dioxo-3-piperidyl)isoindoline-1,3-dione] | 30 | 42
CC(Oc1cccc2c1C(=O)N(C1CCC(=O)NC1=O)C2=O)c1cn(CCCCCCCCCN2CCN(c3ccc(N4CCC[C@H](Oc5cc(-c6ccccc6O)nnc5N)C4)cc3)CC2)nn1 (mixture of isomers) [Example 126, 2-(2,6-dioxo-3-piperidyl)-4-[1-[1-[9-[4-[4-[rac-(3S)-3-[3-amino-6-(2-hydroxyphenyl)pyridazin-4-yl]oxy-1-piperidyl]phenyl]piperazin-1-yl]nonyl]triazol-4-yl]ethoxy]isoindoline-1,3-dione] | 73 | 26
Nc1nnc(-c2ccccc2O)cc1N1CC2CCC(C1)N2c1cccc(CN2CCN(C(=O)C3CCN(c4ccc5c(c4)C(=O)N(C4CCC(=O)NC4=O)C5=O)CC3)CC2)n1 (racemic) [Example 131, rac-5-[4-[4-[[6-[3-[3-amino-6-(2-hydroxyphenyl)pyridazin-4-yl]-3,8-diazabicyclo[3.2.1]octan-8-yl]-2-pyridyl]methyl]piperazine-1-carbonyl]-1-piperidyl]-2-(2,6-dioxo-3-piperidyl)isoindoline-1,3-dione] | 27 | 32
Nc1nnc(-c2ccccc2O)cc1N1CC(Oc2ccc(C(=O)N3CCN(C(=O)C4CCN(c5ccc6c(c5)C(=O)N(C5CCC(=O)NC5=O)C6=O)CC4)CC3)c(C(F)(F)F)c2)C1 (racemic) [Example 132, rac-5-[4-[4-[4-[1-[3-amino-6-(2-hydroxyphenyl)pyridazin-4-yl]azetidin-3-yl]oxy-2-(trifluoromethyl)benzoyl]piperazine-1-carbonyl]-1-piperidyl]-2-(2,6-dioxo-3-piperidyl)isoindoline-1,3-dione] | 133 | 44
Nc1nnc(-c2ccccc2O)cc1N1CC2CCC(C1)N2c1cccc(CN2CCN(C(=O)CCC3CCN(c4ccc5c(c4)C(=O)N(C4CCC(=O)NC4=O)C5=O)CC3)CC2)n1 (racemic) [Example 133, rac-5-[4-[3-[4-[[6-[3-[3-amino-6-(2-hydroxyphenyl)pyridazin-4-yl]-3,8-diazabicyclo[3.2.1]octan-8-yl]-2-pyridyl]methyl]piperazin-1-yl]-3-oxo-propyl]-1-piperidyl]-2-(2,6-dioxo-3-piperidyl)isoindoline-1,3-dione] | 64 | 44
